Source: ChEMBL document CHEMBL3297726, “Isolation and structure elucidation of cystargamide, a lipopeptide from Kitasatospora cystarginea” (J Nat Prod, 2014)
Activity calls are given as the source filed them. Positions of bridges follow the written chain, without caps; N, C: chain ends. Non-standard residues stand in square brackets, D forms with d. Residues, ends and D or L forms follow the SMILES beside them. *: point of attachment. Trp(5-OH) = N[C@@H](Cc1c[nH]c2ccc(O)cc12)C(=O)O; Hpg = N[C@H](C(=O)O)c1ccc(O)cc1; X1 = CCCCCCCC1OC1C(=O)*

Assays:
Type in all cases: functional, organism-based
[1] = system: Enterococcus faecium; assay: Antimicrobial activity against vancomycin-resistant Enterococcus faecium EF379 assessed as growth inhibition at 128 ug/ml
[2] = system: Staphylococcus aureus; assay: Antimicrobial activity against methicillin-resistant Staphylococcus aureus ATCC 33591 assessed as growth inhibition at 128 ug/ml
[3] = system: Staphylococcus warneri; assay: Antimicrobial activity against Staphylococcus warneri ATCC 17917 assessed as growth inhibition at 128 ug/ml
[4] = system: Candida albicans; assay: Antimicrobial activity against Candida albicans ATCC 14035 assessed as growth inhibition at 128 ug/ml

Measured: growth inhibition (GI)

CCCCCCCC1OC1C(=O)N[C@@H]1C(=O)N[C@@H](Cc2ccccc2)C(=O)N[C@@H](CCC(=O)O)C(=O)N[C@@H](Cc2c[nH]c3ccc(O)cc23)C(=O)N[C@@H](c2ccc(O)cc2)C(=O)NCC(=O)O[C@@H]1C (some centres undefined) (X1-TFE[Trp(5-OH)][Hpg]G; ester 1-C)
inactive: [1] | [2] | [3] | [4]
